# In US9775351B2, “Ternary fungicidal and pesticidal mixtures” (BAYER CROPSCIENCE AG, priority 2012, dated 2017):
# System: Rhizoctonia solani
# Assay: Rhizoctonia test (cotton)/seed treatment
# Format: in vivo
# Settings: greenhouse, 7 days at 20° C
# Method: Rhizoctonia Test (Cotton)/Seed Treatment
# The test is performed under greenhouse conditions.
# Commercially available disease control agents, active compounds solved in N-methyl-2-pyrrolidon, or combinations thereof were diluted with water to the desired dosages. Cotton seeds were treated with this preparations and sown in 6*6 cm pots containing 4 cm of a 1:1 mix of steamed field soil and sand, mixed with a perlite-culture of Rhizoctonia solani.
# Pots were incubated in the greenhouse for 7 days at 20° C.
# Assessment consisted of counting of emerged seedlings and diseased plants. 0% means an efficacy which corresponds to that of the untreated control, while an efficacy of 100% means that all seedlings have emerged and are healthy.
smiles,measurement,setting,value
COCC(=O)N(c1c(C)cccc1C)C(C)C(=O)OC (stereo not drawn) [metalaxyl],Efficacy in %,application rate 1 g a.i./dt,12%
"CC1CC(C)(C)c2cccc(NC(=O)c3cn(C)nc3C(F)F)c21 (stereo not drawn) [(I-1), 3-(difluoromethyl)-1-methyl-N-(1,1,3-trimethyl-2,3-dihydro-1H-inden-4-yl)-1H-pyrazole-4-carboxamide]",Efficacy in %,application rate 10 g a.i./dt,41%
CN/C(=N\[N+](=O)[O-])NCc1cnc(Cl)s1 [clothianidin],Efficacy in %,application rate 12 g a.i./dt,24%
